Assays:
[1] = tested on: Rabbit Psoas myofibrils (skeletal myosin ATPase); test: Myofibril ATPase assay, rabbit psoas (skeletal) myofibrils; format: biochemical; conditions: rabbit psoas myofibrils
How it was run: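 Myofibrils homogenized in Triton X-100 buffer were assayed in pH 7.0 PIPES with defined Ca2+/EGTA. Myosin-driven ADP formation was coupled to NADH oxidation, with depletion monitored at 340 nm. Each value is the concentration that lowers activity to 75% of vehicle or, for activators, raises it to 125%.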

[2] = tested on: Porcine atria myofibrils (atrial myosin ATPase); test: Myofibril ATPase assay, porcine atria myofibrils; format: biochemical; conditions: porcine atria myofibrils
How it was run: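 Values are Y75 (concentration cutting ATPase activity to 75% of vehicle) or Y125 (raising it to 125%), taken from 4-parameter logistic fits. Rates come from NADH disappearance at 340 nm in a PK/LDH-coupled assay with porcine atria myofibrils.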

[3] = target: T1, Porcine ventricle myofibrils (ventricular myosin ATPase) (Sus scrofa, UniProt P79293); test: Myofibril ATPase assay, porcine ventricle myofibrils; format: biochemical, porcine (Yucatan minipigs); conditions: porcine ventricle myofibrils
T1 construct: Myofibrils from porcine cardiac muscle was isolated from the left ventricle of Yucatan minipigs; tissue Exemplar Genetics; host or cells: left ventricle of Yucatan minipigs, myofibrils prepared in house
T1 sequence (P79293 whole entry): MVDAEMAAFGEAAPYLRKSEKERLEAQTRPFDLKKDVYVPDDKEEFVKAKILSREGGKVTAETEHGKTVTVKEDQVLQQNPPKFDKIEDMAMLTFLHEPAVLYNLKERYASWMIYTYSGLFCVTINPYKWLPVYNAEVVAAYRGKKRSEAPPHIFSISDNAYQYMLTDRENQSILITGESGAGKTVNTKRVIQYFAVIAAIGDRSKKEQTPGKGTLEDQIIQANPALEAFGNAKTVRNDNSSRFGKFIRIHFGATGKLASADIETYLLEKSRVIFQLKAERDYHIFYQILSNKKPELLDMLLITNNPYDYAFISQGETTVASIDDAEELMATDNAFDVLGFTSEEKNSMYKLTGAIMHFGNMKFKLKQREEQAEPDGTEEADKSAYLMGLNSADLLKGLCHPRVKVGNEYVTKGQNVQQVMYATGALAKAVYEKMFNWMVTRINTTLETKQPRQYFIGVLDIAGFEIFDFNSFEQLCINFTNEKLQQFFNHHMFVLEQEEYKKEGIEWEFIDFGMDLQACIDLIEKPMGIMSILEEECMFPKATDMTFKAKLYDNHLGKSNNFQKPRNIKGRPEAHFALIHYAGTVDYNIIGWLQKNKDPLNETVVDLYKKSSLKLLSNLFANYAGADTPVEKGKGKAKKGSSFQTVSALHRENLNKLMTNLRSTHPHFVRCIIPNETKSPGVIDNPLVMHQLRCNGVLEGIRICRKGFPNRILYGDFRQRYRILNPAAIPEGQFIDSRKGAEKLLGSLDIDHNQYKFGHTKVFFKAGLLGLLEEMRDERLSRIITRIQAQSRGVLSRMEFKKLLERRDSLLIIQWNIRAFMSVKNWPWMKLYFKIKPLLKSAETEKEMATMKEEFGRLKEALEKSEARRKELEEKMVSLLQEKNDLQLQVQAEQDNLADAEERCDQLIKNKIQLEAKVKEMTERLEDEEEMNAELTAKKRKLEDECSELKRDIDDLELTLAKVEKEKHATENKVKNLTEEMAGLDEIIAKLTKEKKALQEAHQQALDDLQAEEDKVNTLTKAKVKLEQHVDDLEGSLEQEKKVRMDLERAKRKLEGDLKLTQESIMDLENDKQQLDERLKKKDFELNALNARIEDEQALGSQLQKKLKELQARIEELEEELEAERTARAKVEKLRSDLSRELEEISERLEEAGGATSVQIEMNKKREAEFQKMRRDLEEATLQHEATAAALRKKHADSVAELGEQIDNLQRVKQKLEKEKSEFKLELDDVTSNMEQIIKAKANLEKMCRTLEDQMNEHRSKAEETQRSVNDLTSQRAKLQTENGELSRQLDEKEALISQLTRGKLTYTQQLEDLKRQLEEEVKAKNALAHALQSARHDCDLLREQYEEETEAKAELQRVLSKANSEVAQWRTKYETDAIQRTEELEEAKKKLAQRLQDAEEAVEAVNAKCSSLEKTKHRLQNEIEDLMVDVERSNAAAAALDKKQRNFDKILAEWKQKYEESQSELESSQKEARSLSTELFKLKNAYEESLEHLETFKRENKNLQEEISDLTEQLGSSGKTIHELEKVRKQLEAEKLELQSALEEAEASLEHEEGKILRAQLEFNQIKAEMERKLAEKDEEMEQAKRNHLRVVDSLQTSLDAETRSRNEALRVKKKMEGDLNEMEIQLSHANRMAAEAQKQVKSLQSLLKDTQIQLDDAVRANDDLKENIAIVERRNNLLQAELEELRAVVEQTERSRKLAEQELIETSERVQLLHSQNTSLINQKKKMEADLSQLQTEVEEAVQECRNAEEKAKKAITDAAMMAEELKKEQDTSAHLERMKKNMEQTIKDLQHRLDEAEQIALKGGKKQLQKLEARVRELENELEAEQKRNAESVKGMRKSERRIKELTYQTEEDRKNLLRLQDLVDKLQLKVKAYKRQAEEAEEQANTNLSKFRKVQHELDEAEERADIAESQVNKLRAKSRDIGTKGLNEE
How it was run: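 ATPase activity of porcine left-ventricle myofibrils (Yucatan minipig) was followed through PK-LDH coupling as NADH loss at 340 nm, read every 1.5-2 min for 75 min. Slopes were normalised to vehicle wells and fitted to a 4-parameter logistic model. Values are Y75, the concentration giving a 25% drop in activity, or Y125 for activators.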

[4] = Y75 value (75% activity relative to no compound)

SMILES | Skeletal EC25 ([1]; Y75 value) | Atrial EC25 [2, 4] | Ventricular EC25 ([3]; Y75 value) | Skeletal EC25 ([1]; Y75 value (no ‡ mark)) | Atrial EC25 ([2]; Y75 value (no ‡ mark)) | Ventricular EC25 ([3]; Y75 value (no ‡ mark))
C[C@H](NC(=O)Cc1c(C(F)F)c2cnccc2[nH]c1=O)c1ccc(F)cc1F [compound 438] | 600 nM | 2350 nM | 7680 nM | – | – | –
Cc1ccc2[nH]c(=O)c(CC(=O)N[C@H](C)c3ncc(C#N)cc3F)cc2n1 [compound 462] | 100000 nM | 65720 nM | 100000 nM | – | – | –
Cc1c(F)ccc2[nH]c(=O)c(CC(=O)N[C@@H](C)c3ccc(C#N)cc3F)c(O)c12 [compound 20] | – | – | – | 510 nM | 210 nM | 310 nM
Cc1c(C(F)(F)C(=O)N[C@@H](C)c2ccc(F)cc2F)c(=O)[nH]c2ccnc(Cl)c12 [compound 401] | 20 nM | 50 nM | 200 nM | – | – | –
Cc1nc(C#N)ncc1[C@H](C)NC(=O)Cc1c(C)c2cc(F)ccc2[nH]c1=O [compound 1053] | – | – | – | 40 nM | 120 nM | 220 nM
Cc1c(CC(=O)N[C@@H](C)c2ccc(F)cc2F)c(=O)[nH]c2ccnnc12 [compound 418] | 2190 nM | 2660 nM | 48430 nM | – | – | –
Cc1nccc2[nH]c(=O)c(CC(=O)N[C@@H](C)c3ncc(F)cc3F)c(C)c12 (single isomer, unassigned) [compound 379] | 360 nM | 2360 nM | 5810 nM | – | – | –
Cc1c(CC(=O)N[C@H](CO)c2ccc(C#N)cc2F)c(=O)[nH]c2ccc(C#N)nc12 [compound 220] | 100000 nM | 100000 nM | 100000 nM | – | – | –
Cc1nccc2[nH]c(=O)c(CC(=O)N[C@H]3CNc4cc(F)cc(F)c43)c(C)c12 (single isomer, unassigned) [compound 182] | 1760 nM | 8600 nM | 35910 nM | – | – | –
Cc1c(CC(=O)N[C@H](C)c2ccc(C#N)cc2F)c(=O)[nH]c2ccc(F)c(C(F)(F)F)c12 [compound 37] | – | – | – | 20 nM | 40 nM | 50 nM
C[C@@H](NC(=O)C1(c2cc3c(F)c(F)ccc3[nH]c2=O)CC1)c1cnc(C#N)cn1 (single isomer, unassigned) [compound 4829] | – | – | – | 1150 nM | 450 nM | 6130 nM
Cc1c(CC(=O)N[C@@H](C)c2ccc(F)cc2F)c(=O)[nH]c2ccc(F)c(Br)c12 [compound 109] | – | – | – | 10 nM | 40 nM | 130 nM
Cc1nc(C#N)cnc1[C@H](C)NC(=O)C1(c2cc3c(F)c(F)ccc3[nH]c2=O)CC1 (single isomer, unassigned) [compound 4826] | – | – | – | 1000 nM | 670 nM | 10090 nM
Cc1nccc2[nH]c(=O)c([C@@H](C)C(=O)N[C@@H](C)c3ncc(C#N)cc3F)c(C)c12 (single isomer, unassigned) [compound 193] | 750 nM | 470 nM | 5940 nM | – | – | –
Cc1c(CC(=O)N[C@@H](C)c2ccc(C#N)nn2)c(=O)[nH]c2ccc(F)c(C3CC3)c12 (single isomer, unassigned) [compound 2058] | – | – | – | 3150 nM | 100000 nM | 68080 nM
Cc1c(CC(=O)N[C@@H]2COCc3cc(C#N)cnc32)c(=O)[nH]c2ccc(F)cc12 [compound 1056] | – | – | – | 100000 nM | 100000 nM | 100000 nM
CCCOc1nccc2[nH]c(=O)c(CC(=O)N[C@@H](C)c3ccc(F)cc3F)c(C)c12 [compound 384] | 40 nM | 210 nM | 11670 nM | – | – | –
Cc1cc(C#N)ccc1[C@H](C)NC(=O)Cc1c(O)c2cc(F)c(F)cc2[nH]c1=O [compound 1089] | – | – | – | 100000 nM | 6410 nM | 42070 nM
C[C@H](NC(=O)Cc1cc2c(OCC(F)(F)F)nccc2[nH]c1=O)c1ccc(F)cc1F [compound 436] | 12920 nM | 100000 nM | 100000 nM | – | – | –
